This passage reports TGI and GI50 results from PubChem BioAssay (NCI).

Holding throughout (experiment): NCI tumour cell line growth inhibition, 48 h
For assay [1], the system named is HOP-92 NSCLC.
The test system of assay [2] is HOP-62 NSCLC.
Assay [3] relates to OVCAR-4 ovarian.
The subject of assay [4] is SF-295 CNS.
Assay [5] has as its system RPMI-8226 leukemia.
Assay [6] relates to ACHN renal.
Assay [7] deals with A549 NSCLC.
The subject of assay [8] is MCF7 breast.
The subject of assay [9] is PC-3 prostate.
For assay [10], the system named is T-47D breast.

Several values for one entry are separate records, joined by “and”; a condition that tells them apart may be missing. Equal entries are not always repeated.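 The compound was tested at five concentrations on cells cultured in 96-well plates, with a 48-hour exposure period. Here, GI50 denotes the concentration required for 50% inhibition of growth. TGI marks complete inhibition of growth.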

For `COC(=O)C1CCC(Nc2cccc(C(F)(F)F)c2)=N1` (stereo not given), the TGI in [1], in assay [2], in assay [3], in assay [4], in assay [5] and in assay [6] was above 100 µM throughout. In assay [7], this compound registered a TGI above 100 µM.
Consider `N#CCC(=O)N/N=C1\C(=O)N(c2ccc(Cl)cc2)C(=O)C(=O)C1c1nc2ccccc2o1` (stereo not given), for which the TGI in assay [1], in assay [2], in assay [3], in assay [4], in [6] and in [7] was above 100 µM in each case.
Turning to `O=C1/C(=C\c2coc3ccccc3c2=O)c2ccccc2N1c1c(Cl)cccc1Cl`, the GI50 in assay [2] is 4770 nM; in [3], 3.66 µM; in assay [8] it was 3210 nM; in assay [9], 1350 nM; in [10], 3.05 µM; in assay [4] it was 4220 nM. Moreover, the values for the GI50 in assay [5], in assay [6] and in assay [7] were 1250 nM, 4140 nM and 4240 nM, respectively. For the same compound, the TGI was above 100 µM in assay [2]; above 100 µM in [3]; above 100 µM in assay [8]; 30.5 µM in [9]; 31.1 µM in assay [10]; above 100 µM in assay [4]. Moreover, the TGI is 3.95 µM in assay [5], above 100 µM in assay [6] and above 100 µM in assay [7].
Turning to `C=C(CS(=O)(=O)c1ccccc1)[P+](c1ccccc1)(c1ccccc1)c1ccccc1`, the TGI was 65.6 µM in assay [1]; 90 µM in assay [2]; above 100 µM in assay [3]; 50 µM in [4]; 11.4 µM in assay [5]; 53.1 µM in assay [6]. Besides, the TGI in [7] is above 100 µM.
Consider `CC(=O)OC1C(CCl)OC(N=[N+]=[N-])C(OC(C)=O)C1OC(C)=O` (stereo not given), for which the TGI in [2], in [3], in assay [4], in assay [5], in [6] and in [7] was above 100 µM throughout.
For the compound `C/C(=N/NC(=O)C(N)=O)C(CC(C(=O)Nc1ccccc1C)/C(C)=N\NC(=O)C(N)=O)C(=O)Nc1ccccc1C` (stereo not given), the TGI in assay [1], in [2], in assay [3], in assay [4], in [5] and in [6] was above 100 µM throughout. Further, the TGI in assay [7] was above 100 µM.
For the compound `COc1cc2cc[n+]3c4cc(OC)c(OC)cc4c(C)cc3c2cc1OC`, the TGI in assay [1], in assay [2], in assay [3], in [4], in assay [5] and in assay [6] was above 100 µM in each case. Also, in assay [7], the TGI was above 100 µM.
Take `N#Cc1cccc(NC(=O)c2oc3ccccc3c2-c2cnn(-c3ccccc3)c2)c1`: the GI50 in assay [1] was 121 µM; in [2] it was 320000 nM; in assay [3], 193 µM; in assay [8], 209000 nM; in assay [9] it was above 500000 nM; in [4], 430000 nM. Further, the GI50 in [5], in [6] and in [7] was above 500000 nM each time. Further, the TGI in [1], in [2], in assay [3], in assay [8], in [9] and in assay [4] was above 500 µM in each case. For the same compound, the TGI in assay [5], in [6] and in assay [7] was above 500 µM throughout.
Regarding `Clc1ccc(OC2CCO2)cc1Cl` (stereo not given), the TGI in assay [1], in [2], in assay [3], in assay [4], in assay [5] and in [6] was above 100 µM in each case. In assay [7], this compound registered a TGI above 100 µM.
In the case of `CNc1ccc(-c2cc(=O)oc3ccc(Cl)cc23)cc1`, the TGI is 7.96 µM in assay [1]; above 100 µM in assay [2]; above 100 µM in [3]; above 100 µM in [8]; above 100 µM in [9]; above 100 µM in assay [4]. Besides, the TGI in assay [5] was 33.9 µM; in assay [6] it was above 100 µM; in assay [7], above 100 µM. For the same compound, the GI50 was 69.6 nM and 169 nM in [2]; 229 nM and 151 nM in [8]; 226 nM and 64 nM in assay [9]; 47.9 nM and 32.2 nM in [4]; 194 nM and 154 nM in assay [5]; 104 nM and 55.8 nM in assay [6]. Further, in assay [7], the GI50 is 137 nM and 85.6 nM.
For the compound `CCN(CC)CCNC(=O)c1cccc2cc3ccccc3nc12`, the TGI was 27.8 µM in [1]; 36.9 µM in assay [2]; 37.1 µM in [4]; 22.3 µM in assay [6]; above 100 µM in [7].
With `O=c1c2cc(Br)cc(Br)c2[nH]c(=S)n1-c1ccccc1`, the TGI in assay [1], in assay [2], in [3], in assay [4], in assay [5] and in [6] was above 100 µM throughout. Further, the TGI in [7] was above 100 µM.
With `CN(c1ccccc1)C1C(=O)N(c2ccccc2)C1/C=C/c1ccccc1` (stereo not given), the TGI in assay [1], in assay [4], in assay [5], in assay [6] and in assay [7] was above 100 µM throughout.
As for `N#CC(C#N)=CSc1ccccc1`, the TGI in [1], in assay [2], in assay [3], in assay [4], in [5] and in assay [6] was above 100 µM each time. This compound also returned a TGI in assay [7] above 100 µM.
Regarding `O=C(O)CCC1(Br)CCCCC(Br)C1=O` (stereo not given), the TGI in [1], in [2], in assay [3], in assay [4], in [5] and in [6] was above 100 µM in each case. This compound yielded a TGI in [7] above 100 µM.
